Source: US5245050A, “Derivatives of physiologically active substance ML-236B and process for production thereof” (Tobishi Yakuhin Kogyo Kabushiki Kaisha, priority 1988, dated 1993)

Target: T1, HMG-CoA reductase (Rattus norvegicus, UniProt P51639)
T1 construct: 0.6 mg/ml of rat liver microsome fraction; from tissue; host or cells: rat liver (microsome fraction)
T1 sequence (P51639 1-887): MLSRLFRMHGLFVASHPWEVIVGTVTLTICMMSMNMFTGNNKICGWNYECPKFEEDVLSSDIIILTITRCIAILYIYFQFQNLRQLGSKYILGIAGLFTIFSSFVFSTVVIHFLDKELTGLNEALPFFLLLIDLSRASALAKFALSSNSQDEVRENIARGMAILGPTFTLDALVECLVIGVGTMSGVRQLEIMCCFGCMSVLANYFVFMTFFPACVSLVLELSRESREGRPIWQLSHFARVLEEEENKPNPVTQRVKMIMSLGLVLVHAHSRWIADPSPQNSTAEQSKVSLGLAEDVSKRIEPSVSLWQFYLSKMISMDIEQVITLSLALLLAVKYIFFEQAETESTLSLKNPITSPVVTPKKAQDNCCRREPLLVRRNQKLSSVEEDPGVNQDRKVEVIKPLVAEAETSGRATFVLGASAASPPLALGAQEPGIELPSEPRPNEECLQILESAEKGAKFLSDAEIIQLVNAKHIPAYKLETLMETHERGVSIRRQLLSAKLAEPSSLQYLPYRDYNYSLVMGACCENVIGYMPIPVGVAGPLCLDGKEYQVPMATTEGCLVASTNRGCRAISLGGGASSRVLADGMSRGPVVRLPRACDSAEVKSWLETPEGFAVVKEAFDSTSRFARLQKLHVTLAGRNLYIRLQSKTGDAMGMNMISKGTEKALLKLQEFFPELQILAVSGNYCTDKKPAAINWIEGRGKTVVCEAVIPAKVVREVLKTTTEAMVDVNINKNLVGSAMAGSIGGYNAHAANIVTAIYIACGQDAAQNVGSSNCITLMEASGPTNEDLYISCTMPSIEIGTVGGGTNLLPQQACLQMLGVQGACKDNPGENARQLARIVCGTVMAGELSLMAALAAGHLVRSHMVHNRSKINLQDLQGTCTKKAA
Assay: HMG-CoA reductase inhibitory activity ([14C]HMG-CoA to [14C]mevalonic acid, rat liver microsome fraction)
Format: biochemical
Details: for remaining activity at 0.1 µg/mL: 0.1 μg/ml; for remaining activity at 10 µg/mL: 10 μg/ml; for IC50: rat liver microsome fraction, 37° C., 30 minutes, read-out: I50 (amount of sample necessary to inhibit the HMG-CoA reductase activity to 50%) (converted)
Procedure: The HMG-CoA reductase activity can be determined by using [^14 C] HMG-CoA as a substrate and measuring the resulting [^14 C] mevalonic acid (Kuroda and Endo, Biochem Biophys Acta, 486, 70-81), as described in detail in the following.
A reaction mixture contains 100 mM of potassium phosphate buffer (pH 7.4), 10 mM of EDTA, 10 mM of dithiothreitol, 10 mM of NADPH, 0.11 mM of DL-[3-^14 C] HMG-CoA (4.5 mCi/mmol), and 0.6 mg/ml of rat liver microsome fraction. The final volume of reaction mixture is 50 μl including 1 μl of a methanol solution of a test sample. A reaction is started by adding the substrate HMG-CoA, continued at 37° C. for 30 minutes, and terminated by adding 10 μl of 2N hydrochloric acid solution To this reaction mixture is added 20 μl of 100 mM [5-^3 H] mevaronic acid (22.7 μCi/mmol), and the reaction is carried out at 37° C. for a further 15 minutes. Using 40 μl of this reaction mixture as a carrier, 5 μl of 200 mM mevaronic acid (lactone type) is spotted on a silica gel plate, and after development by benzene/acetone (1:1) mixture, a spot of mevaronic acid is peeled off and suspended in a liquid scintillator to measure the radio activity thereof. The inhibitory activity is expressed by an amount of a sample necessary to inhibit the HMG-CoA reductase activity to 50% (I50 value).

[1] = read-out: Enzyme activity (% relating to control)

remaining activity at 0.1 µg/mL [1] [%]	remaining activity at 10 µg/mL [1] [%]	IC50 [nM]	remaining activity at 1 µg/mL (1 μg/ml, read-out: Enzyme activity (% relating to control)) [%]	Structure (SMILES)
71	4.7	683		CCC(C)C(=O)OC1CCC2C(Cl)C23C=CC(C)C(CCC2CC(O)CC(=O)O2)C13 (stereo not drawn) [Compound (6)]
74		681	27	CCC(C)C(=O)OC1CCC2C(F)(F)C23C=CC(C)C(CCC2CC(O)CC(=O)O2)C13 (stereo not drawn) [(1)]
98	30	> 2040		CCC(C)C(=O)OC1CCC2C(Cl)(Cl)C23C=CC(C)C(CCC(O)CC(O)CC(N)=O)C13 (stereo not drawn) [(7)]
63	7.6	544		CCC(C)C(=O)OC1CCC2CC23C=CC(C)C(CCC2CC(O)CC(=O)O2)C13 (stereo not drawn) [(4)]
